Here are results for two substances from US20110189157A1, “USE OF HUMAN HYALURONIDASES FOR AXONAL REGROWTH” (priority 2008, published 2011).

Data set [1] deals with damaged adult nigrostriatal tract. Conditions: rat, cited from earlier work.
A short description of data set [2]: Chondroitinase activity assay: cleavage of biotin-labelled CS in solution, intact substrate detected on protamine-coated microplate. Conditions: 0.8-100 milliunits enzyme; biotin-CS 0.01 μg/ml; 37° C., 1 h; FIG. 3.
Protocol: A solid phase, for example a microtiter plate, is coated with protamine by incubation of 100 μl/well of a 0.003% solution of protamine sulfate at 37° C. for 24 hours. Thereafter, plates were washed 3 times with A dest. and stored in the dark.
Plates were washed 3 times with buffer (PBS/0.01% Tween 20) and Avidin-POD (1 μg/ml in PBS/5% BSA) was added.
After 15 min plates were washed 5 times with PBS and 100 μl OPD-solution (0.667 mg/ml) was added.
After 15 min the reaction was stopped by addition of 100 μl of 0.5 Mol H2SO4. OD was measured at 490 nm using a microplate reader.
The enzyme reaction is carried out by mixing 50 μl of biotin-labelled CS at 0.01 μg/ml with increasing amounts of chondroitinase ABC, e.g. 0.8-100 nano-units of chondroitinase ABC. Samples were brought to a volume of 100 μl by addition of PBS.
This mixture is incubated at 37° C. for 1 h. Thereafter the enzyme was inactivated by heating at 100° C. for 10 min.
Samples (85 μl of the samples) were transferred to the CS-BP (protamine)-coated microplate and incubated for 1 hour at room temperature.
The enzyme reaction is carried out by mixing 50 μl of biotin-labelled CS at 0.01 μg/ml with increasing amounts of hyaluronidase, e.g. 0.8-100 milliunits of hyaluronidase. Samples were brought to a volume of 100 μl by addition of PBS.
This mixture is incubated at 37° C. for 1 h. […]

For chondroitinase ABC, in data set [1] (in vivo), the “persistence of active enzyme in the injured CNS” value was “at least 10 days”. Besides, the axon regeneration entry in data set [1] (single dose injected adjacent to damaged nigrostriatal tract) is recorded as “promoted axon regeneration”.

Regarding hyaluronidase, the “degradation of biotin-labelled chondroitin sulfate (decrease in signal, OD 490 nm)” value in data set [2] is reported as “dose-dependent degradation”.
